Results reported in US6696559B1, “Antimicrobial peptides and methods of use” (The Regents of the University of California, priority 1996, dated 2004).
Entries after “also recorded” stand apart in the source; their conditions may differ. Where no end group is shown, it is not given here.

Columns and labels:
C. albicans = experiment: microbicidal suspension assay; assay type: cell-based
Protocol: (§1) Antimicrobial assay. E. coli ML35, S. aureus 502A, C. albicans, and C. neoformans were used as target organisms in a microbicidal suspension assay as previously described (Selsted, M. E., Genetic Engineering: Principles and Methods, J. K. Setlow, Plenum Press, New York, 1993, pp. 131-147).
(§2) Natural and synthetic BGP-A and synthetic BGP-A-amide were tested for their microbicidal activities against S. aureus 502A, E. coli ML35, C. albicans, and C. neoformans. Using a microbicidal suspension assay (Selsted, M. E., Genetic Engineering: Principles and Methods, J. K. Setlow, Plenum Press, New York, 1993, pp.131-147), each peptide was tested against the four test organisms with peptide concentrations ranging from 5-100 μg/ml. The bactericidal and fungicidal activities of the three peptide preparations were assessed using a standard microbicidal assay. Organisms were grown to mid-log phase, harvested, and suspended to 2×10^7 CFU/ml. The incubation mixture contained 1-2×10^6 CFU/ml, 10 mM sodium phosphate buffer, pH 7.4, and peptide at concentrations up to 100 μg/ml. After 1 h of incubation at 37° C. (4 h incubations for C. neoformans), serial 10-fold dilutions were plated on Trypticase Soy Agar (bacteria) or S. abaraud dextrose agar (fungi), and incubated for 24-48 h at 37° C. Killing was quantitated by colony counting, and plotted as a function of peptide concentration in the incubation.

C. neoformans = experiment: microbicidal suspension assay; assay type: cell-based
Protocol: as §1, §2

S. aureus 502A = experiment: microbicidal suspension assay; assay type: cell-based
Protocol: as §1, §2

E. coli ML35 = experiment: microbicidal suspension assay; assay type: cell-based
Protocol: as §1, §2

E. coli = conditions: Selsted et al., J. Biol. Chem. 267:4292-4295, 1992; cited from earlier work
S. aureus = conditions: Selsted et al., J. Biol. Chem. 267:4292-4295, 1992; cited from earlier work
[1] = 1 h incubation, synthetic versus natural peptide, listed as synthetic BGP-A
[2] = peptide 5-100 μg/ml, 10 mM sodium phosphate buffer, pH 7.4, 1 h at 37° C., FIG. 7

| Substance | microbicidal potency compared with natural BGP-A (C. albicans; [1]) | microbicidal activity (reduction in colony forming units) (C. albicans; [2]) | microbicidal potency compared with natural BGP-A (C. neoformans; 4 h incubation, synthetic versus natural peptide, listed as synthetic BGP-A) | microbicidal activity (reduction in colony forming units) (C. neoformans; peptide 5-100 μg/ml, 10 mM sodium phosphate buffer, pH 7.4, 4 h at 37° C., FIG. 7) | microbicidal potency compared with natural BGP-A (S. aureus 502A; [1]) | microbicidal activity (reduction in colony forming units) (S. aureus 502A; [2]) | microbicidal potency compared with natural BGP-A (E. coli ML35; [1]) | microbicidal activity (reduction in colony forming units) (E. coli ML35; [2]) | bactericidal activity (E. coli) | bactericidal activity (S. aureus) |
| --- | --- | --- | --- | --- | --- | --- | --- | --- | --- | --- |
| YKIIQQWPHYRRV [BGP-A, thirteen-residue peptide antibiotic expressed in bovine granulocytes, …; tested as natural and synthetic preparations] | equal in potency; also recorded: equivalent killing activity | microbicidal | equal in potency; also recorded: equivalent killing activity | microbicidal | equal in potency; also recorded: equivalent killing activity | microbicidal | equal in potency; also recorded: equivalent killing activity | microbicidal |  |  |
| indolicidin: novel tridecapeptide amide from bovine neutrophils, cationic, unusually rich in tryptophan (ILPWKWPWWPWRR-NH2; UniProt P33046 131-143, looked up) |  |  |  |  |  |  |  |  | potent bactericidal activity | potent bactericidal activity |
